We go through two compounds from US6620813B1, “Hydroxamate derivatives of non-steroidal anti-inflammatory drugs” (Medinox, Inc., priority 2002, dated 2003).

Data set [1] concerns Male Sprague-Dawley rats. Nature of the data set: Gastropathy model: total gastric lesions after a single oral dose. It counts as in vivo, rat. On the procedure: Rats were fasted for 18 hours prior to the study. […] Drugs were administered orally as a single dose in the morning and water removed. Two and one-half hours after dosing, rats were injected with 1 ml of 10 mg/ml Evans Blue solution and sacrificed 30 minutes later. Stomachs were removed, placed in weigh boats containing cold PBS, and re-coded with letters to blind the observer. Stomachs were then opened along the greater curvature, any contents removed and then placed flat with the lumen facing up to score blue-stained lesions for gastric toxicity according to the following criteria: First, the number of small rounded lesions were counted followed by measurement of total length of linear lesions of greater than or equal to 2 mm. The two numbers obtained (round lesion number and linear length) were added together to give a total gastropathy score expressed as Total Gastric Lesions.

For data set [2], the system named is Male Sprague-Dawley rats. Nature of the data set: Enteropathy model: intestinal erosions and ulcers after oral dosing. Particulars: diclofenac vs equimolar compound 54, vehicle PEG, FIG. 1.
Protocol: Enteropathy: Male Sprague-Dawley rats (150-174 g) were obtained from Harlan. Animals were allowed to acclimatize to the facility for a minimum of 3 days and provided with food and water ad libitium. […] Drugs were administered orally either as a single dose (late morning) or twice daily between 8:00-10:00 and 4:00-5:00 beginning with a morning dose for a total of three days. Groups contained 6-8 animals per treatment. On the fourth day each rat was injected intravenously with 1 ml of a 10 mg/ml solution of Evan's Blue to stain the damaged blood vessels in intestinal erosions and ulcers. Animals were sacrificed 10 to 20 minutes after administration of Evan's Blue. The small intestine was then removed from each rat and placed in a large weigh boat in cold PBS, stored briefly in a refrigerator until boats were re-coded to blind the observer. Each intestinal segment was then opened longitudinally and, using a fiber optic light, scored for erosions and ulceration according to the following criteria:
After Evan's Blue injection, intestinal lesions are seen as shallow lesions that are moderately stained around the edge, but with little to no staining in the middle. The depth of an erosion is sometimes only detectable when the edge of the tissue is lifted to reflect light at a different angle. Erosions are usually small and round or oval, but are sometimes as much as 1-2 mm wide, and as long as 1-2 cm, running along the area of mesenteric attachment. When erosions are elongated, the length is measured in mm and divided by 2; otherwise, the erosions are merely counted individually. Note that some areas of intestinal tissue stain blue, but are not erosions. These tend to be near the mesenteric membrane attachment sites and may represent areas of increased permeability that have not progressed to the extent that cell loss has occurred.
Ulcers: An ulcer is a deep lesion penetrating the muscularis mucosa. It is usually thickened and inflamed. After Evan's Blue injection, ulcers present several different types of appearance. […] All ulcers are quantified by measuring their long dimensions in mm.
A further data set concerns Male Lewis rats. As to the kind of experiment: Adjuvant-induced arthritis: paw volume. In kind it is in vivo, rat. Particulars: oral daily on days 8-15, day 15, equimolar doses, FIG. 3.

“Also recorded” adds a separate entry of the source.

As for `Cc1csc(=S)n1OC(=O)Cc1ccccc1Nc1c(Cl)cccc1Cl` [Compound 54], the “gastric lesion formation compared with Diclofenac” value in the data set with Male Sprague-Dawley rats [1] (rat model of gastropathy, equivalent doses) is given as “significantly less gastric lesion formation”. Further, the “less gastric lesion (total length) than an equimolar dose of diclofenac” value with Male Sprague-Dawley rats [1] (rats, oral single dose, relative to equimolar diclofenac, FIG. 2) was found to be 73%. In addition, the “total length of intestinal ulcers (ulcerogenic effect / ulcer formation)” value with Male Sprague-Dawley rats [2] is given as “significantly less; also recorded: no ulcerogenic effect”. Besides, the “inhibition of paw volume increase in the uninjected feet (anti-inflammatory activity)” value with Male Lewis rats is given as “equivalent efficacy to equimolar doses of Diclofenac”.

Consider `O=C(O)Cc1ccccc1Nc1c(Cl)cccc1Cl` [Diclofenac, diclofenac, reference compound], for which, in the data set with Male Sprague-Dawley rats [2], the “total length of intestinal ulcers (ulcerogenic effect / ulcer formation)” value is recorded as “substantial ulceration”.
